Data published in patent US20250179061A1 (SIRONAX LTD., priority 2022, published 2025).

tested on: HT-29 cells; assay: HT-29 necroptosis cell viability assay (TNF-α/SMAC mimetic/zVAD-FMK, CellTiter-Glo); format: cell-based; settings: Homo sapiens, HT-29, HT-29 necroptosis cell viability, IC50 class symbols; read-out: Activity
Outline: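 Necroptosis was triggered by TNF-α (10 ng/ml), SMAC mimetic (6 μM) and zVAD-FMK (10 μM) in serum-free medium during 20 h compound exposure (10 concentrations, threefold steps) of HT-29 cells. IC50 from duplicate dose-responses uses CellTiter-Glo ATP luminescence as viability read-out.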

| Compound | IC50 |
| --- | --- |
| O=c1n(Cc2c(F)cccc2F)cnn1-c1ccc(Oc2ccnc(N3CCC4(COC4)C3)c2)cc1 [Example 333, 2-(4-((2-(2-oxa-6-azaspiro[3.4]octan-6-yl)pyridin-4-yl)oxy)phenyl)-4-(2,6-difluorobenzyl)-2,4-dihydro-3H-1,2,4-triazol-3-one] | < 100 nM |
| O=c1n(Cc2c(F)cccc2F)cnn1-c1ccc(Oc2ccnc(N3CC4(CCCCO4)C3)c2)cc1 [Example 334, 2-(4-((2-(5-oxa-2-azaspiro[3.5]nonan-2-yl)pyridin-4-yl)oxy)phenyl)-4-(2,6-difluorobenzyl)-2,4-dihydro-3H-1,2,4-triazol-3-one] | < 100 nM |
| O=c1n(Cc2c(F)cccc2F)cnn1-c1ccc(Oc2ccnc(N3CC4(CCCOC4)C3)c2)cc1 [Example 335, 2-(4-((2-(6-oxa-2-azaspiro[3.5]nonan-2-yl)pyridin-4-yl)oxy)phenyl)-4-(2,6-difluorobenzyl)-2,4-dihydro-3H-1,2,4-triazol-3-one] | < 100 nM |
| CCOC1CN(c2cc(Oc3ccc(-n4ncn(Cc5c(F)cccc5F)c4=O)cc3)ccn2)C1 [Example 336, 4-(2,6-difluorobenzyl)-2-(4-((2-(3-ethoxyazetidin-1-yl)pyridin-4-yl)oxy)phenyl)-2,4-dihydro-3H-1,2,4-triazol-3-one] | < 100 nM |
| CC1CCN(c2cc(Oc3ccc(-n4ncn(Cc5c(F)cccc5F)c4=O)cc3)ccn2)C1 (stereo not shown) [Example 337, 4-(2,6-difluorobenzyl)-2-(4-((2-(3-methylpyrrolidin-1-yl)pyridin-4-yl)oxy)phenyl)-2,4-dihydro-3H-1,2,4-triazol-3-one] | < 100 nM |
| N#CC1CN(c2cc(Oc3ccc(-n4ncn(Cc5c(F)cccc5F)c4=O)cc3)ccn2)C1 [Example 338, 1-(4-(4-(4-(2,6-difluorobenzyl)-5-oxo-4,5-dihydro-1H-1,2,4-triazol-1-yl)phenoxy)pyridin-2-yl)azetidine-3-carbonitrile] | 100 to 1000 nM |
| O=c1n(Cc2c(F)cccc2F)cnn1-c1ccc(Oc2ccnc(N3CC4(CCOCC4)C3)c2)cc1 [Example 339, 2-(4-((2-(7-oxa-2-azaspiro[3.5]nonan-2-yl)pyridin-4-yl)oxy)phenyl)-4-(2,6-difluorobenzyl)-2,4-dihydro-3H-1,2,4-triazol-3-one] | < 100 nM |
| O=c1n(Cc2c(F)cccc2F)cnn1-c1ccc(Oc2ccnc(N3CCC4(CCOCC4)C3)c2)cc1 [Example 340, 2-(4-((2-(8-oxa-2-azaspiro[4.5]decan-2-yl)pyridin-4-yl)oxy)phenyl)-4-(2,6-difluorobenzyl)-2,4-dihydro-3H-1,2,4-triazol-3-one] | < 100 nM |
| O=c1n(Cc2c(F)cccc2F)cnn1-c1ccc(Oc2ccnc(NCC3COC3)c2)cc1 [Example 341, 4-(2,6-difluorobenzyl)-2-(4-((2-((oxetan-3-ylmethyl)amino)pyridin-4-yl)oxy)phenyl)-2,4-dihydro-3H-1,2,4-triazol-3-one] | 1000 to 10000 nM |
| O=c1n(Cc2c(F)cccc2F)cnn1-c1ccc(Oc2ccnc(NCC3CCC3)c2)cc1 [Example 342, 2-(4-((2-((cyclobutylmethyl)amino)pyridin-4-yl)oxy)phenyl)-4-(2,6-difluorobenzyl)-2,4-dihydro-3H-1,2,4-triazol-3-one] | 100 to 1000 nM |
| O=c1n(Cc2c(F)cccc2F)cnn1-c1ccc(Oc2ccnc(NC3COC3)c2)cc1 [Example 343, 4-(2,6-difluorobenzyl)-2-(4-((2-(oxetan-3-ylamino)pyridin-4-yl)oxy)phenyl)-2,4-dihydro-3H-1,2,4-triazol-3-one] | 1000 to 10000 nM |
| O=c1n(Cc2c(F)cccc2F)cnn1-c1ccc(Oc2ccnc(NC3CCC3)c2)cc1 [Example 344, 2-(4-((2-(cyclobutylamino)pyridin-4-yl)oxy)phenyl)-4-(2,6-difluorobenzyl)-2,4-dihydro-3H-1,2,4-triazol-3-one] | 100 to 1000 nM |
| CC(C)Nc1cc(Oc2ccc(-n3ncn(Cc4c(F)cccc4F)c3=O)cc2)ccn1 [Example 345, 4-(2,6-difluorobenzyl)-2-(4-((2-(isopropylamino)pyridin-4-yl)oxy)phenyl)-2,4-dihydro-3H-1,2,4-triazol-3-one] | 100 to 1000 nM |
| CCNc1cc(Oc2ccc(-n3ncn(Cc4c(F)cccc4F)c3=O)cc2)ccn1 [Example 346, 4-(2,6-difluorobenzyl)-2-(4-((2-(ethylamino)pyridin-4-yl)oxy)phenyl)-2,4-dihydro-3H-1,2,4-triazol-3-one] | 100 to 1000 nM |
| O=c1n(Cc2c(F)cccc2F)cnn1-c1ccc(Oc2ccnc(OCC3CC3)c2)cc1 [Example 347, 2-(4-((2-(cyclopropylmethoxy)pyridin-4-yl)oxy)phenyl)-4-(2,6-difluorobenzyl)-2,4-dihydro-3H-1,2,4-triazol-3-one] | < 100 nM |
| C[C@@H](Nc1cc(Oc2ccc(-n3ncn(Cc4c(F)cccc4F)c3=O)cc2)ccn1)C1CCC1 [Example 348, (R)-2-(4-((2-((1-cyclobutylethyl)amino)pyridin-4-yl)oxy)phenyl)-4-(2,6-difluorobenzyl)-2,4-dihydro-3H-1,2,4-triazol-3-one] | 100 to 1000 nM |

| Compound | IC50 |
| --- | --- |
| C[C@H](Nc1cc(Oc2ccc(-n3ncn(Cc4c(F)cccc4F)c3=O)cc2)ccn1)C1CCC1 [Example 349, (S)-2-(4-((2-((1-cyclobutylethyl)amino)pyridin-4-yl)oxy)phenyl)-4-(2,6-difluorobenzyl)-2,4-dihydro-3H-1,2,4-triazol-3-one] | 100 to 1000 nM |
| O=c1n(Cc2c(F)cccc2F)cnn1-c1ccc(S(=O)(=O)c2ccnc(N3CCC3)c2)cc1 [Example 350, 2-(4-((2-(azetidin-1-yl)pyridin-4-yl)sulfonyl)phenyl)-4-(2,6-difluorobenzyl)-2,4-dihydro-3H-1,2,4-triazol-3-one] | < 100 nM |
| N#CC1CC(Nc2cc(Oc3ccc(-n4ncn(Cc5c(F)cccc5F)c4=O)cc3)ccn2)C1 (stereo not shown) [Example 351, 3-((4-(4-(4-(2,6-difluorobenzyl)-5-oxo-4,5-dihydro-1H-1,2,4-triazol-1-yl)phenoxy)pyridin-2-yl)amino)cyclobutane-1-carbonitrile] | 100 to 1000 nM |
| CN(c1cc(Oc2ccc(-n3ncn(Cc4c(F)cccc4F)c3=O)cc2)ccn1)C1CCC1 [Example 352, 2-(4-((2-(cyclobutyl(methyl)amino)pyridin-4-yl)oxy)phenyl)-4-(2,6-difluorobenzyl)-2,4-dihydro-3H-1,2,4-triazol-3-one] | 100 to 1000 nM |
| CCN(C)c1cc(Oc2ccc(-n3ncn(Cc4c(F)cccc4F)c3=O)cc2)ccn1 [Example 353, 4-(2,6-difluorobenzyl)-2-(4-((2-(ethyl(methyl)amino)pyridin-4-yl)oxy)phenyl)-2,4-dihydro-3H-1,2,4-triazol-3-one] | 100 to 1000 nM |
| NC12CC(Nc3cc(Oc4ccc(-n5ncn(Cc6c(F)cccc6F)c5=O)cc4)ccn3)(C1)C2 [Example 354, 2-(4-((2-((3-aminobicyclo[1.1.1]pentan-1-yl)amino)pyridin-4-yl)oxy)phenyl)-4-(2,6-difluorobenzyl)-2,4-dihydro-3H-1,2,4-triazol-3-one] | 100 to 1000 nM |
| CCOC1CN(c2nccc(Oc3ccc(-n4ncn(Cc5c(F)cccc5F)c4=O)cc3)c2F)C1 [Example 355, 4-(2,6-difluorobenzyl)-2-(4-((2-(3-ethoxyazetidin-1-yl)-3-fluoropyridin-4-yl)oxy)phenyl)-2,4-dihydro-3H-1,2,4-triazol-3-one] | < 100 nM |
| CC1(C#N)CCN(c2nccc(Oc3ccc(-n4ncn(Cc5c(F)cccc5F)c4=O)cc3)c2F)C1 (stereo not shown) [Example 356, 1-(4-(4-(4-(2,6-difluorobenzyl)-5-oxo-4,5-dihydro-1H-1,2,4-triazol-1-yl)phenoxy)-3-fluoropyridin-2-yl)-3-methylpyrrolidine-3-carbonitrile] | < 100 nM |
| CC1C(C#N)CN1c1nccc(Oc2ccc(-n3ncn(Cc4c(F)cccc4F)c3=O)cc2)c1F (stereo not shown) [Example 357, 1-(4-(4-(4-(2,6-difluorobenzyl)-5-oxo-4,5-dihydro-1H-1,2,4-triazol-1-yl)phenoxy)-3-fluoropyridin-2-yl)-2-methylazetidine-3-carbonitrile] | < 100 nM |
| COC1(C#N)CN(c2nccc(Oc3ccc(-n4ncn(Cc5c(F)cccc5F)c4=O)cc3)c2F)C1 [Example 358, 1-(4-(4-(4-(2,6-difluorobenzyl)-5-oxo-4,5-dihydro-1H-1,2,4-triazol-1-yl)phenoxy)-3-fluoropyridin-2-yl)-3-methoxyazetidine-3-carbonitrile] | < 100 nM |
| COC1(C#N)CN(c2ccnc(Cl)c2Oc2ccc(-n3ncn(Cc4c(F)cccc4F)c3=O)cc2)C1 [Example 359, 1-(2-chloro-3-(4-(4-(2,6-difluorobenzyl)-5-oxo-4,5-dihydro-1H-1,2,4-triazol-1-yl)phenoxy)pyridin-4-yl)-3-methoxyazetidine-3-carbonitrile] | 100 to 1000 nM |
| O=c1n(Cc2c(F)cccc2F)cnn1-c1ccc(Oc2ccnc(NC(C3CC3)C(F)(F)F)c2F)cc1 (stereo not shown) [Example 360, 2-(4-((2-((1-cyclopropyl-2,2,2-trifluoroethyl)amino)-3-fluoropyridin-4-yl)oxy)phenyl)-4-(2,6-difluorobenzyl)-2,4-dihydro-3H-1,2,4-triazol-3-one] | 1000 to 10000 nM |
| N#CC12CC(Nc3nccc(Oc4ccc(-n5ncn(Cc6c(F)cccc6F)c5=O)cc4)c3F)(C1)C2 [Example 361, 3-((4-(4-(4-(2,6-difluorobenzyl)-5-oxo-4,5-dihydro-1H-1,2,4-triazol-1-yl)phenoxy)-3-fluoropyridin-2-yl)amino)bicyclo[1.1.1]pentane-1-carbonitrile] | 100 to 1000 nM |
| O=c1n(Cc2c(F)cccc2F)cnn1-c1ccc(Oc2ccnc(NC3(C(F)(F)F)CC3)c2F)cc1 [Example 362, 4-(2,6-difluorobenzyl)-2-(4-((3-fluoro-2-((1-(trifluoromethyl)cyclopropyl)amino)pyridin-4-yl)oxy)phenyl)-2,4-dihydro-3H-1,2,4-triazol-3-one] | 1000 to 10000 nM |
| CCOC1CN(c2nccc(Oc3ccc(-n4ncn(Cc5c(F)cccc5F)c4=O)cc3F)c2F)C1 [Example 363, 4-(2,6-difluorobenzyl)-2-(4-((2-(3-ethoxyazetidin-1-yl)-3-fluoropyridin-4-yl)oxy)-3-fluorophenyl)-2,4-dihydro-3H-1,2,4-triazol-3-one] | < 100 nM |
